How the values were obtained:
[1] = test system: SD-rat, beagle dog and human hepatocytes; assay: Hepatocyte incubation, remaining abundance in all species; assay type: in vitro ADME; details: 10 μM
Procedure: (§1) Metabolite profile and metabolite identification of Compound 1 were studied in cryopreserved SD-rat, beagle dog and human hepatocytes. The incubations were conducted using 10 μM initial concentrations of test substance and sampling at 0 min, 60 min, and 120 min. The samples were analysed using UPLC/Q-TOF-MS. Incubation material and procedures are provided Table 1. The samples were thawed at room temperature (RT), centrifuged (10 min at 13000×g (Heraeus Pico 17 centrifuge), and the supernatants were pipetted to glass vials to wait for analysis. Analysis was performed using liquid chromatography-mass spectrometry (LC-MS) according to the parameters described in Table 2. The samples were thawed at room temperature (RT), centrifuged (10 min at 13000×g (Heraeus Pico 17 centrifuge), and the supernatants were pipetted to glass vials to wait for analysis.

[2] = Control incubation without cells; assay type: in vitro ADME
Procedure: as §1

[3] = test system: SD-rat hepatocytes; assay: Metabolite profile in cryopreserved SD-rat hepatocytes; assay type: in vitro ADME; details: 10 μM Compound 1, 120 min
Procedure: as §1

[4] = Metabolite identification in cross-subject human plasma pool; assay type: in vivo; details: day 7, 0-24 h pool, multiple daily oral 15 mg Compound 1, n=8
Procedure: The in vivo metabolism of Compound 1 was investigated in studies using rat, dog, rabbit, and human plasma and human urine samples from toxicology studies, an embryofetal development study, and a human clinical study.
Human plasma and urine samples originated from a human clinical study with subjects aged 65 years or older, dosed with 15 mg daily and achieving steady-state before day 7. Samples were stored at −75° C. or below from collection until analysis.
Human plasma samples from each Compound 1-dosed subject (15 mg; n=8) collected at day 7 at 0.25 h, 0.5 h, 1 h, 1.5 h, 2 h, 3 h, 4 h, 6 h, 8 h, 10 h, 12 h and 24 h after multiple daily oral administration were pooled for analysis. Plasma from placebo-dosed subjects (n=2) taken at the same time-points and pre-dose plasma collected on day 1 from Compound 1-dosed subjects were used as control for metabolite identification.
Time-normalized pooled plasma samples (day 7; 0-24 h) were prepared for each human subject treated with Compound 1 (15 mg; n=8) or with placebo (n=2) (see e.g., Hamilton et al, Clin. Pharmacol. Ther. 1983, 29(3):408-13). Composite time-normalized pooled plasma samples for human subjects dosed with Compound 1 or placebo were then prepared by combining an equal volume from the pooled sample prepared for each subject. A composite control plasma sample was prepared by combining an equal volume of pre-dose plasma from human subjects treated with Compound 1 (n=8).
Aliquots (100 μL) of the pooled plasma samples prepared for metabolite identification were treated with ice-cold acetonitrile (500 μL), mixed and centrifuged (2000 g; 4° C.; 10 min). […]
Samples were analysed by LC-MS, utilising a Vion Q-TOF mass spectrometer (Waters), Acquity I-class LC pumps, column heater, sample manager and photodiode array detector (Waters). […] Metabolite abundance was calculated as a percentage of total drug-related material in a given sample; the MS peak areas were collated and summed, and the abundance of each metabolite calculated as a percentage of the total in each sample. […]

[5] = test system: human hepatocytes; assay: Metabolite profile in cryopreserved human hepatocytes; assay type: in vitro ADME; details: 10 μM Compound 1, 120 min
Procedure: as §1

[6] = Metabolite identification in cross-subject human urine pool; assay type: in vivo; details: day 7, 0-24 h pool, multiple daily oral 15 mg Compound 1, n=8
Procedure: Human urine samples from the Compound 1-dosed subjects (15 mg; n=8) collected at day 7 between 0-4 h, 4 h-8 h, 8 h-12 h and 12 h-24 h after multiple daily oral administration were also pooled for analysis. Urine from placebo-dosed subjects (n=2) collected at day 7 over the same time periods was used as control for metabolite identification.
A composite urine sample (day 7; 0-24 h) was prepared for each human subject treated with Compound 1 (15 mg; n=8) or with placebo (n=2) by combining proportional amounts of the sample collected over each time period. Composite cross-subject urine samples for human subjects dosed with Compound 1 or placebo were then prepared by combining proportional amounts of pooled urine from each subject. All urine pools were mixed and centrifuged (2000 g; 4° C.; 10 min) prior to analysis.
Samples were analysed by LC-MS, utilising a Vion Q-TOF mass spectrometer (Waters), Acquity I-class LC pumps, column heater, sample manager and photodiode array detector (Waters). The mass spectrometer was set to operate in positive ion mode and a number of experiments were performed to enable the acquisition of full scan and product ion data. […] Metabolite abundance was calculated as a percentage of total drug-related material in a given sample; the MS peak areas were collated and summed, and the abundance of each metabolite calculated as a percentage of the total in each sample. Based on apparent abundance, metabolites were categorized as ‘major’ if present at 10% or more of the total drug-related material, ‘minor’ if between 1 and <10% and ‘trace’ if <1%.

[7] = test system: beagle dog hepatocytes; assay: Metabolite profile in cryopreserved beagle dog hepatocytes; assay type: in vitro ADME; details: 10 μM Compound 1, 120 min
Procedure: as §1

Row | Structure (SMILES) | remaining abundances after 120 min incubation period [1] | Metabolite profile, No cells 120 min, % ([2]; incubation without cells, 10 μM, 120 min) | disappearance in the control incubation without cells ([2]; without cells) | Metabolite profile, Rat 120 min, % [3] | % Abundance in Sample, Plasma (% of total drug-related material) [4] | Metabolite profile, Human 120 min, % [5] | % Abundance in Sample, Urine (% of total drug-related material) [6] | Metabolite profile, Dog 120 min, % [7]
1 | CCOC(=O)N1CC[C@]2(C1)C[C@@H](N1CCC(c3ccnn3C)CC1)C2 [Compound 1, cis ethyl 2-[4-(1-methyl-1H-pyrazol-5-yl)piperidin-1-yl]-6-azaspiro[3.4]octane-6-carboxylate] | 79-93% | 100% | Practically no disappearance | 93.7% | 82.0% | 84.0% | 63.3% | 94.9%
2 | Cn1nccc1C1CCN([C@H]2C[C@]3(CCNC3)C2)CC1 [Compound M4] | – | – | – | 4.9% | 11.4% | 13.8% | 26.4% | 4.6%
3 | CCOC(=O)N1CC[C@]2(C1)C[C@@H](N1CCC(c3ccn[nH]3)CC1)C2 [Compound M2] | – | – | – | 0.1% | 2.3% | 0.3% | 3.3% | –

Reference: patent US20260226027A1, “DEUTERATED COMPOUNDS” (Neurocrine Biosciences, Inc., priority 2023, published 2026)
